What was measured:
Assay in all cases: KinaseProfiler off-target kinase profiling
Assay type in all cases: biochemical
Conditions in all cases: 10 μM, ATP near Km
[1] = molecular target: T1, Abl2 (Homo sapiens, UniProt P42684)
T1 construct: purchased Millipore (KinaseProfiler service)
Protocol: (§1) A representative compound of the invention (Example 2) was tested for off-target kinase activity at a concentration of 10 μM by Millipore, Inc. in their KinaseProfiler™ service against all the kinases available in their full kinase panel. The compound was run in duplicate at a concentration of ATP near the Km for each individual kinase according to Millipore's specifications. The results are shown in Table B. Data are reported as percent of control (POC) and are the average of the two replicates.

[2] = molecular target: T2, TBK1 (Homo sapiens, UniProt Q9UHD2)
T2 construct: purchased Millipore, Inc. (KinaseProfiler service)
Protocol: as §1

[3] = molecular target: T3, NEK2 (Homo sapiens, UniProt P51955)
T3 construct: purchased Millipore, Inc. (KinaseProfiler service)
Protocol: as §1

[4] = molecular target: T4, PhKgamma2 (Homo sapiens, UniProt P15735)
T4 construct: purchased Millipore, Inc. (KinaseProfiler service)
Protocol: as §1

[5] = molecular target: T5, p70S6K (Homo sapiens, UniProt P23443)
T5 construct: purchased Millipore, Inc. (KinaseProfiler service)
Protocol: as §1

[6] = molecular target: T6, MRCKalpha (Homo sapiens, UniProt Q5VT25)
T6 construct: purchased Millipore, Inc. (KinaseProfiler service)
Protocol: as §1

[7] = molecular target: T7, Lck (Homo sapiens, UniProt P06239)
T7 construct: purchased Millipore, Inc. (KinaseProfiler service)
Protocol: as §1

[8] = molecular target: T8, GRK5 (Homo sapiens, UniProt P34947)
T8 construct: purchased Millipore, Inc. (KinaseProfiler service)
Protocol: as §1

[9] = molecular target: T9, CDK2/cyclinA (Homo sapiens, UniProt P24941)
T9 construct: purchased Millipore (KinaseProfiler service)
Protocol: as §1

[10] = molecular target: T10, ARK5 (Homo sapiens, UniProt O60285)
T10 construct: purchased Millipore (KinaseProfiler service)
Protocol: as §1

[11] = molecular target: T11, TSSK2 (Homo sapiens, UniProt Q96PF2)
T11 construct: purchased Millipore, Inc. (KinaseProfiler service)
Protocol: as §1

[12] = molecular target: T12, CLK3 (Homo sapiens, UniProt P49761)
T12 construct: purchased Millipore, Inc. (KinaseProfiler service)
Protocol: as §1

[13] = molecular target: T13, LIMK1 (Homo sapiens, UniProt P53667)
T13 construct: purchased Millipore, Inc. (KinaseProfiler service)
Protocol: as §1

[14] = molecular target: T14, PRK2 (Homo sapiens, UniProt Q16513)
T14 construct: purchased Millipore, Inc. (KinaseProfiler service)
Protocol: as §1

[15] = molecular target: T15, Haspin (Homo sapiens, UniProt Q8TF76)
T15 construct: purchased Millipore, Inc. (KinaseProfiler service)
Protocol: as §1

[16] = tested on: CK1_y
Protocol: as §1

[17] = molecular target: T16, TAO3 (Homo sapiens, UniProt Q9H2K8)
T16 construct: purchased Millipore, Inc. (KinaseProfiler service)
Protocol: as §1

[18] = molecular target: T17, EphA1 (Homo sapiens, UniProt P21709)
T17 construct: purchased Millipore, Inc. (KinaseProfiler service)
Protocol: as §1

[19] = molecular target: T18, PDGFRbeta (Homo sapiens, UniProt P09619)
T18 construct: purchased Millipore, Inc. (KinaseProfiler service)
Protocol: as §1

[20] = molecular target: T19, DRAK1 (Homo sapiens, UniProt Q9UEE5)
T19 construct: purchased Millipore, Inc. (KinaseProfiler service)
Protocol: as §1

[21] = molecular target: T20, MRCKbeta (Homo sapiens, UniProt Q9Y5S2)
T20 construct: purchased Millipore, Inc. (KinaseProfiler service)
Protocol: as §1

[22] = molecular target: T21, PKCbetaI (Homo sapiens, UniProt P05771)
T21 construct: purchased Millipore, Inc. (KinaseProfiler service)
Protocol: as §1

[23] = molecular target: T22, Rsk1 (Homo sapiens, UniProt Q15418)
T22 construct: purchased Millipore, Inc. (KinaseProfiler service)
Protocol: as §1

[24] = molecular target: T23, MEK1 (Homo sapiens, UniProt Q02750)
T23 construct: purchased Millipore, Inc. (KinaseProfiler service)
Protocol: as §1

[25] = molecular target: T24, BLK_m (Mus musculus, UniProt P16277)
T24 construct: purchased Millipore (KinaseProfiler service)
Protocol: as §1

[26] = molecular target: T25, Pim-1 (Homo sapiens, UniProt P11309)
T25 construct: purchased Millipore, Inc. (KinaseProfiler service)
Protocol: as §1

[27] = molecular target: T26, MST2 (Homo sapiens, UniProt Q13188)
T26 construct: purchased Millipore, Inc. (KinaseProfiler service)
Protocol: as §1

[28] = molecular target: T27, Tie2 (Homo sapiens, UniProt Q02763)
T27 construct: purchased Millipore, Inc. (KinaseProfiler service)
Protocol: as §1

[29] = molecular target: T28, PKD2 (Homo sapiens, UniProt Q9BZL6)
T28 construct: purchased Millipore, Inc. (KinaseProfiler service)
Protocol: as §1

[30] = molecular target: T29, GRK6 (Homo sapiens, UniProt P43250)
T29 construct: purchased Millipore, Inc. (KinaseProfiler service)
Protocol: as §1

[31] = molecular target: T30, FGFR3 (Homo sapiens, UniProt P22607)
T30 construct: purchased Millipore, Inc. (KinaseProfiler service)
Protocol: as §1

[32] = molecular target: T31, PKCiota (Homo sapiens, UniProt P41743)
T31 construct: purchased Millipore, Inc. (KinaseProfiler service)
Protocol: as §1

[33] = molecular target: T32, MKK4_m (Mus musculus, UniProt P47809)
T32 construct: purchased Millipore, Inc. (KinaseProfiler service)
Protocol: as §1

[34] = molecular target: T33, MELK (Homo sapiens, UniProt Q14680)
T33 construct: purchased Millipore, Inc. (KinaseProfiler service)
Protocol: as §1

[35] = molecular target: T34, MST3 (Homo sapiens, UniProt Q9Y6E0)
T34 construct: purchased Millipore, Inc. (KinaseProfiler service)
Protocol: as §1

[36] = molecular target: T35, c-RAF (Homo sapiens, UniProt P04049, Y340D/Y341D)
T35 construct: purchased Millipore, Inc. (KinaseProfiler service)
Protocol: as §1

[37] = molecular target: T36, Fer (Homo sapiens, UniProt P16591)
T36 construct: purchased Millipore, Inc. (KinaseProfiler service)
Protocol: as §1

[38] = molecular target: T37, EphA7 (Rattus norvegicus, UniProt P54759)
T37 construct: purchased Millipore, Inc. (KinaseProfiler service)
Protocol: as §1

[39] = molecular target: T38, WNK3 (Homo sapiens, UniProt Q9BYP7)
T38 construct: purchased Millipore, Inc. (KinaseProfiler service)
Protocol: as §1

[40] = molecular target: T39, IRAK1 (Homo sapiens, UniProt P51617)
T39 construct: purchased Millipore, Inc. (KinaseProfiler service)
Protocol: as §1

[41] = molecular target: T40, SGK1 (Homo sapiens, UniProt O00141, S422D)
T40 construct: purchased Millipore, Inc. (KinaseProfiler service)
Protocol: as §1

T19 sequence (Q9UEE5 whole entry): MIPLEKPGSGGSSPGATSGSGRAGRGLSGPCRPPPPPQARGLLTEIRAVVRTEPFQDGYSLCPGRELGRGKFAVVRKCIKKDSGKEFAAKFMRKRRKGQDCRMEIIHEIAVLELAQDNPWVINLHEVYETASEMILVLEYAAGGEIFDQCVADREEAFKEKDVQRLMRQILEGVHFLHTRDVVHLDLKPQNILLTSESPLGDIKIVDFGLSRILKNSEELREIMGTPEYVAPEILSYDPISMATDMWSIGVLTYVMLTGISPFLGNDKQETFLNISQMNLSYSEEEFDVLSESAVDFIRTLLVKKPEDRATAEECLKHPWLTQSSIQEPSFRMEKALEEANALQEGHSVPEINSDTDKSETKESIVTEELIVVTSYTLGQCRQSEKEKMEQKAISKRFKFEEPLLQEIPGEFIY
T37 sequence (P54759 577-998 limits assumed): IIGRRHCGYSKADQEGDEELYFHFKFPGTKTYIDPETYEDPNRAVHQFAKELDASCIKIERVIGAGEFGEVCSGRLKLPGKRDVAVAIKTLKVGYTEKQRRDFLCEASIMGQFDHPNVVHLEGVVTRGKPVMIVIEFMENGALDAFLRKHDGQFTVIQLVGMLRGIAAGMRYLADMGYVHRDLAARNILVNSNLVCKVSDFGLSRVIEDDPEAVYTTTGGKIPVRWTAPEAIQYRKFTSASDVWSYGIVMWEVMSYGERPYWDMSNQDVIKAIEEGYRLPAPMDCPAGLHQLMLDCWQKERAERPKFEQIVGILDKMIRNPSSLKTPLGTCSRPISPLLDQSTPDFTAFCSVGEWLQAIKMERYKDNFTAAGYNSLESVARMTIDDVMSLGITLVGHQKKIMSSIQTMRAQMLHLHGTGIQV
T17 sequence (P21709 26-976): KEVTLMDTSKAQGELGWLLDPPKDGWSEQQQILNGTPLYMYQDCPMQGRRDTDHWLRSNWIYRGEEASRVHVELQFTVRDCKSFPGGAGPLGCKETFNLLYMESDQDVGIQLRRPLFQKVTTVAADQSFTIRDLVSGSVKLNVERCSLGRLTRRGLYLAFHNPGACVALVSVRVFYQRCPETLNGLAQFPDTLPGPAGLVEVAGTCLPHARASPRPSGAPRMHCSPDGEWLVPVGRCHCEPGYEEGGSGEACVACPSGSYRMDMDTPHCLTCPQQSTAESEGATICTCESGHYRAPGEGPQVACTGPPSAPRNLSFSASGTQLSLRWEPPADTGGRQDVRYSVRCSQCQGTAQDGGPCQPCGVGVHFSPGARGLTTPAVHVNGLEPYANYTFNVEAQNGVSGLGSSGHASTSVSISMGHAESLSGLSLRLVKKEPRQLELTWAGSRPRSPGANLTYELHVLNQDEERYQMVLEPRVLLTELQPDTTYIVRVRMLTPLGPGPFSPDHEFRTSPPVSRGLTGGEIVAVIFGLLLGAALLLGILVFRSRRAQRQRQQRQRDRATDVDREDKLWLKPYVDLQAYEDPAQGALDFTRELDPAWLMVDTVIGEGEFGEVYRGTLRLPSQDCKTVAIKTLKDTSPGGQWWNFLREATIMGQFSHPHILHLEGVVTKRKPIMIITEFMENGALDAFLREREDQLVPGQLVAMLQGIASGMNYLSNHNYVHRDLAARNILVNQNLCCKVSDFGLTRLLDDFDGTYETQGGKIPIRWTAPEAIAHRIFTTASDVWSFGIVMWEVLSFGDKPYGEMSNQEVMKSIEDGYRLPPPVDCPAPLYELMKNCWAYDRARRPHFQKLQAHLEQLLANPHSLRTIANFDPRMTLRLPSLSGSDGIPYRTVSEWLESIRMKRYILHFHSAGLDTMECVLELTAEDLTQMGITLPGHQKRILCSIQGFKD
T39 sequence (P51617 whole entry): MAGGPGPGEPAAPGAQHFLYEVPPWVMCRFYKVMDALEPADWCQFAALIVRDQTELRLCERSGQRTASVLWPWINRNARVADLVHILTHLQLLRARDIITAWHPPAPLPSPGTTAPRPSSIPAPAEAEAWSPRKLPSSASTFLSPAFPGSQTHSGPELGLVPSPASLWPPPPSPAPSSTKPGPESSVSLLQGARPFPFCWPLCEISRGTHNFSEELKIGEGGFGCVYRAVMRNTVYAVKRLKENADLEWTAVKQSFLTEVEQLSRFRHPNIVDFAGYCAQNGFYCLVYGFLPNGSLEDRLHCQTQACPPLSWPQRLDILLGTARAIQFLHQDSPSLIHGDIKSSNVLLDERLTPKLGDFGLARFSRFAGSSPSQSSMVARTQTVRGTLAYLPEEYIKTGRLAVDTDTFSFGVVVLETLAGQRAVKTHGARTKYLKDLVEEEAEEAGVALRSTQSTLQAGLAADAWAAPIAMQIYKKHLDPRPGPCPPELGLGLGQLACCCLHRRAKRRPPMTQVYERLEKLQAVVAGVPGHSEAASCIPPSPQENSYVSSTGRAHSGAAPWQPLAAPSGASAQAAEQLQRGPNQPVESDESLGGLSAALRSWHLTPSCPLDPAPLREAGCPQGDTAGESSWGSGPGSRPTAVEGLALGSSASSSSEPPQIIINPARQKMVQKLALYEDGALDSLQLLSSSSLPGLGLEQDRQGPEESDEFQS
T1 sequence (P42684 whole entry): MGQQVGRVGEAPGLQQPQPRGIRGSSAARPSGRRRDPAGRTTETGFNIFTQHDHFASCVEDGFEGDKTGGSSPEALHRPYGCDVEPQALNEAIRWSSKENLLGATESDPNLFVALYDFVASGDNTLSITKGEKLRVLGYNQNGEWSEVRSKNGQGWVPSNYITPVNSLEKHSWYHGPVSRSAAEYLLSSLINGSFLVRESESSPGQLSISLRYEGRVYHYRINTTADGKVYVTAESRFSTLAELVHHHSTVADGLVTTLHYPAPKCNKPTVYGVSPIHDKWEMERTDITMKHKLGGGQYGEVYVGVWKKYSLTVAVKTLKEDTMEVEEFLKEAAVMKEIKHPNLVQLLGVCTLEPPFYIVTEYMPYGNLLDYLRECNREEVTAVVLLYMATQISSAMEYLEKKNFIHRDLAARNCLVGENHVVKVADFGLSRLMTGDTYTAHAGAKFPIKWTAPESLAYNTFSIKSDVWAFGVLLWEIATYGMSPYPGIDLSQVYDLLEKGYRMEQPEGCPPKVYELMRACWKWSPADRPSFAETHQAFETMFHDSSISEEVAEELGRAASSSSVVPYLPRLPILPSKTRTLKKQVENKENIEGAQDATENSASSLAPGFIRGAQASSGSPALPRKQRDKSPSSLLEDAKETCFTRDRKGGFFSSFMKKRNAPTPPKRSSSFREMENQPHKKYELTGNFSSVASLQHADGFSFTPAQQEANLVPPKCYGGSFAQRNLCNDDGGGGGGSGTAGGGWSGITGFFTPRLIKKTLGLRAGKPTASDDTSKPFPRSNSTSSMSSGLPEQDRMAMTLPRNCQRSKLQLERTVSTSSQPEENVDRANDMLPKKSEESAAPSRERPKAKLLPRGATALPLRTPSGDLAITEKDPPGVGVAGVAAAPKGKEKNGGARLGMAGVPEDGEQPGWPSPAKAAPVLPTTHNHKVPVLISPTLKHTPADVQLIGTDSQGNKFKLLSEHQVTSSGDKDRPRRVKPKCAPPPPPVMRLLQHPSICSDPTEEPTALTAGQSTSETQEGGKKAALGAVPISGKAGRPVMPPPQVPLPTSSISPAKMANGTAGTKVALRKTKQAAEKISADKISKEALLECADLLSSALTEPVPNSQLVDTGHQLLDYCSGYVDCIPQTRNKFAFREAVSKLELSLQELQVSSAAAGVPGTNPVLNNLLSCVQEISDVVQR
T2 sequence (Q9UHD2 whole entry): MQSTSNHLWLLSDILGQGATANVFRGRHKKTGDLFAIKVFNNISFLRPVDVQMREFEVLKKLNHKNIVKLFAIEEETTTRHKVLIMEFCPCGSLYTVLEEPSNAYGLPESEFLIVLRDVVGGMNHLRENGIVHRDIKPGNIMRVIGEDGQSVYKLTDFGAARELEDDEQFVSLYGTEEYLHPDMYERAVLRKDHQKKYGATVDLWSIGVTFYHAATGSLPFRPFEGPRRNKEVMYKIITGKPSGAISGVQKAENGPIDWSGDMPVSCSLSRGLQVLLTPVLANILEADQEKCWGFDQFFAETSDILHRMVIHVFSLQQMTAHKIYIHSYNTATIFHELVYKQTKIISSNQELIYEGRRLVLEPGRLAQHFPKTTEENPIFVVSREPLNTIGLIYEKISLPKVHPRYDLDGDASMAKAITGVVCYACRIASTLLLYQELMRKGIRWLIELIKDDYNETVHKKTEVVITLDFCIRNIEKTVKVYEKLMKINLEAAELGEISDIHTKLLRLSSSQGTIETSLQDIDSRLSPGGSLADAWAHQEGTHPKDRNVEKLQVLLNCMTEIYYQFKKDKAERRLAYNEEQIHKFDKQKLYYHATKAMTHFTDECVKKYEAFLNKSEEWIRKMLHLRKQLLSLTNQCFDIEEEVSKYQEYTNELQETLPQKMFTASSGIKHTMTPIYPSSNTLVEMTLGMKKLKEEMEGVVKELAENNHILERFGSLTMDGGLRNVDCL
T32 sequence (P47809 whole entry): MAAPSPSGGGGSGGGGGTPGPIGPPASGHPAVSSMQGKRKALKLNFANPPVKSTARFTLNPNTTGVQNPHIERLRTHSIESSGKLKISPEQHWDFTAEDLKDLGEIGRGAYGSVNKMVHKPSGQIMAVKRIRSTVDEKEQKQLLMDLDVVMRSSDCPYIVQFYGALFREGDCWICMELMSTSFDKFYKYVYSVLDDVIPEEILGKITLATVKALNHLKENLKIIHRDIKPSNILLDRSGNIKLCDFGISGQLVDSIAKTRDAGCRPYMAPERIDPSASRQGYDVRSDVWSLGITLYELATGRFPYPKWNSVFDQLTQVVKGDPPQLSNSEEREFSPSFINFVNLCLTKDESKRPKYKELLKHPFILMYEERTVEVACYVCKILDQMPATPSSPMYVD

- Avg POC [1]: 136 POC
- Avg POC [2]: 100.5 POC
- Avg POC [3]: 122.5 POC
- Avg POC [4]: 108 POC
- Avg POC [5]: 322 POC
- Avg POC [6]: 147.5 POC
- Avg POC [7]: 103 POC
- Avg POC [8]: 82.5 POC
- Avg POC [9]: 122 POC
- Avg POC [10]: 102 POC
- Avg POC [11]: 142.5 POC
- Avg POC [12]: 110.5 POC
- Avg POC [13]: 102 POC
- Avg POC [14]: 104.5 POC
- Avg POC [15]: 112.5 POC
- Avg POC [16]: 103 POC
- Avg POC [17]: 94 POC
- Avg POC [18]: 81.5 POC
- Avg POC [19]: 162 POC
- Avg POC [20]: 119 POC
- Avg POC [21]: 113 POC
- Avg POC [22]: 102 POC
- Avg POC [23]: 123.5 POC
- Avg POC [24]: 103.5 POC
- Avg POC [25]: 112 POC
- Avg POC [26]: 109.5 POC
- Avg POC [27]: 109 POC
- Avg POC [28]: 131.5 POC
- Avg POC [29]: 110.5 POC
- Avg POC [30]: 98.5 POC
- Avg POC [31]: 117 POC
- Avg POC [32]: 67 POC
- Avg POC [33]: 73.5 POC
- Avg POC [34]: 99 POC
- Avg POC [35]: 157.5 POC
- Avg POC [36]: 96.5 POC
- Avg POC [37]: 78.5 POC
- Avg POC [38]: 103 POC
- Avg POC [39]: 112.5 POC
- Avg POC [40]: 107.5 POC
- Avg POC [41]: 139.5 POC
Compound: Cc1c(-c2cnn(C)c2)nn(-c2ccccc2)c1NC(=O)Nc1sc(C(F)(F)F)nc1-c1ccccc1 [Example 2, 1-(1′,4-dimethyl-1-phenyl-1H,1′H-[3,4′-bipyrazol]-5-yl)-3-(4-phenyl-2-(trifluoromethyl)thiazol-5-yl)urea]

From patent publication US9981959B2, “Thiazolyl and oxazolyl urea, thiourea, guanidine and cyanoguanidine compounds as TrkA kinase inhibitors” (Array BioPharma Inc., priority 2012, dated 2018)
